These results are taken from ChEMBL document CHEMBL4330088, “Targeting the immunity protein kinases for immuno-oncology” (Eur J Med Chem, 2019).

Series [1] addresses T1, Interleukin-1 receptor-associated kinase 4 (Homo sapiens, UniProt Q9NWZ3).
T1 sequence (Q9NWZ3 whole entry): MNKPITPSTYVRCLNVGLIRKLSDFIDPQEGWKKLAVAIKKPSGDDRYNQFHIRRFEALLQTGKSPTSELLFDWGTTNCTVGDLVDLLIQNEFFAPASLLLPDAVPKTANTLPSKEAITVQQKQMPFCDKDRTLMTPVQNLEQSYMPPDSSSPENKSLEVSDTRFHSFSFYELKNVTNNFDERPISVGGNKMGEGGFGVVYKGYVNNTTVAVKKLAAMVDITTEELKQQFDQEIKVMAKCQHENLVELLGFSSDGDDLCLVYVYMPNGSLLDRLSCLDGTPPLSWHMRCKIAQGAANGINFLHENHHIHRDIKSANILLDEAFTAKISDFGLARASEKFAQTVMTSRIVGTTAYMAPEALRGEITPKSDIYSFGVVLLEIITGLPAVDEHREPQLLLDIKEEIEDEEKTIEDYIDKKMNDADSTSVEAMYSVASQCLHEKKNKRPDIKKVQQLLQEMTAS
Nature of the series: Inhibition of IRAK4 (unknown origin).

Series [2] is described as follows: Half life of compound in human PBMC. It counts as ADME, cell-based.
The species entered for series [3] is Homo sapiens. Nature of the series: Selectivity ratio of IC50 for PI3Kdelta (unknown origin) to IC50 for human full length recombinant N-terminal His-tagged PI3Kbeta/p85alpha.
In series [4] the target is PI3K p110 beta/p85 alpha (Homo sapiens, UniProt P42338). Nature of the series: Inhibition of human full length recombinant N-terminal His-tagged PI3Kbeta/p85alpha expressed in baculovirus infected Sf21 insect cells.
Sequence of PI3K p110 beta/p85 alpha (P27986 whole entry): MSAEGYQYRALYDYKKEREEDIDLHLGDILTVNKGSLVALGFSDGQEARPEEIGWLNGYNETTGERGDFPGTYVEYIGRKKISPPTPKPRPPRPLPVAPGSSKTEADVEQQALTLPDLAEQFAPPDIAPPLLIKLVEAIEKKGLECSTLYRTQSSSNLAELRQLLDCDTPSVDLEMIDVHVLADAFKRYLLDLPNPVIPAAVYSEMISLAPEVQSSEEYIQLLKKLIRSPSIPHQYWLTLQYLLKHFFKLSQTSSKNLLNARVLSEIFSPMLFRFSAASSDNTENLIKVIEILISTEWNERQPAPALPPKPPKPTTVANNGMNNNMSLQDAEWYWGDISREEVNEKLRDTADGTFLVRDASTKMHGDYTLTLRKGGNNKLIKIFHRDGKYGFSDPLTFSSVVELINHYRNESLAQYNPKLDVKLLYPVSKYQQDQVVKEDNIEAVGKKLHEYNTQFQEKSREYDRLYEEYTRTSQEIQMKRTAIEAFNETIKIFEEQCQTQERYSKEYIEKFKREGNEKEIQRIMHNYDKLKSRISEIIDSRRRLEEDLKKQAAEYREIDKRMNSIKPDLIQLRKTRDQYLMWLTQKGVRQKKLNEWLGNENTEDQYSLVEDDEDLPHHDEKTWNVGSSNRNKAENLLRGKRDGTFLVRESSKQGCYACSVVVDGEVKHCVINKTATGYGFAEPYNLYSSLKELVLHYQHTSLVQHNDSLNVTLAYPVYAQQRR
Sequence of PI3K p110 beta/p85 alpha (P42338 whole entry): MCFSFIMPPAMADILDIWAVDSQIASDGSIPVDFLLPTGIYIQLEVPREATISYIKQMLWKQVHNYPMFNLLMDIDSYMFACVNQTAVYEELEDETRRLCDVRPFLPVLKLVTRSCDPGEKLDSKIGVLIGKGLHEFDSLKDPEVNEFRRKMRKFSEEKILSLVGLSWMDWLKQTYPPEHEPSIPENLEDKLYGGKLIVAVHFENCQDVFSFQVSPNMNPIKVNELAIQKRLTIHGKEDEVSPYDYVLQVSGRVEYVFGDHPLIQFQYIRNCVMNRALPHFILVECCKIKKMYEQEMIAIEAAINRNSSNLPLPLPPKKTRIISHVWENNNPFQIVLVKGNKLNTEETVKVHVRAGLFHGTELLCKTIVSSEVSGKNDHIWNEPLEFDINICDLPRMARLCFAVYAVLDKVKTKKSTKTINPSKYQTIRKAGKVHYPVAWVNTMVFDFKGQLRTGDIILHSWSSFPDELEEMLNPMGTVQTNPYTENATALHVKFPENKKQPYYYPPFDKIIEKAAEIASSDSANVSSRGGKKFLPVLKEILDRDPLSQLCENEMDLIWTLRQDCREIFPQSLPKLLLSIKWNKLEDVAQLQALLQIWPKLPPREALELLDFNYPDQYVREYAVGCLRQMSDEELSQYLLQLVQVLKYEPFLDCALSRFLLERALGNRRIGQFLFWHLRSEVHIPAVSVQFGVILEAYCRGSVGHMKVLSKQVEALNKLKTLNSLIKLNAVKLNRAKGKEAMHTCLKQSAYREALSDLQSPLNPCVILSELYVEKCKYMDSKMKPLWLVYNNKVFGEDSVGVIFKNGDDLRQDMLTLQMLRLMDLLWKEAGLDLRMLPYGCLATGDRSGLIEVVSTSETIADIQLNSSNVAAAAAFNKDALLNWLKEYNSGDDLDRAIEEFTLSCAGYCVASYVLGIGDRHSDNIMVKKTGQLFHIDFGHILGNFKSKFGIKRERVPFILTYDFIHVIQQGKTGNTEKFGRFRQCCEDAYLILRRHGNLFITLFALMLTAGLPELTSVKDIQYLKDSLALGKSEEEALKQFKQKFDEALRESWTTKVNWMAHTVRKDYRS
The species entered for series [5] is Homo sapiens. Briefly: Selectivity ratio of IC50 for PI3Kdelta (unknown origin) to IC50 for human N-terminal His-tagged PI3Kalpha/p85alpha.
In series [6] the target is PI3-kinase p110-alpha/p85-alpha (Homo sapiens, UniProt P42336). Briefly: Inhibition of human N-terminal His-tagged PI3Kalpha/p85alpha expressed in Spodoptera frugiperda using phosphatidylinositol as substrate.
Sequence of PI3-kinase p110-alpha/p85-alpha (P27986 whole entry, canonical isoform): as the sequence (P27986 whole entry) above
Sequence of PI3-kinase p110-alpha/p85-alpha (P42336 whole entry, canonical isoform): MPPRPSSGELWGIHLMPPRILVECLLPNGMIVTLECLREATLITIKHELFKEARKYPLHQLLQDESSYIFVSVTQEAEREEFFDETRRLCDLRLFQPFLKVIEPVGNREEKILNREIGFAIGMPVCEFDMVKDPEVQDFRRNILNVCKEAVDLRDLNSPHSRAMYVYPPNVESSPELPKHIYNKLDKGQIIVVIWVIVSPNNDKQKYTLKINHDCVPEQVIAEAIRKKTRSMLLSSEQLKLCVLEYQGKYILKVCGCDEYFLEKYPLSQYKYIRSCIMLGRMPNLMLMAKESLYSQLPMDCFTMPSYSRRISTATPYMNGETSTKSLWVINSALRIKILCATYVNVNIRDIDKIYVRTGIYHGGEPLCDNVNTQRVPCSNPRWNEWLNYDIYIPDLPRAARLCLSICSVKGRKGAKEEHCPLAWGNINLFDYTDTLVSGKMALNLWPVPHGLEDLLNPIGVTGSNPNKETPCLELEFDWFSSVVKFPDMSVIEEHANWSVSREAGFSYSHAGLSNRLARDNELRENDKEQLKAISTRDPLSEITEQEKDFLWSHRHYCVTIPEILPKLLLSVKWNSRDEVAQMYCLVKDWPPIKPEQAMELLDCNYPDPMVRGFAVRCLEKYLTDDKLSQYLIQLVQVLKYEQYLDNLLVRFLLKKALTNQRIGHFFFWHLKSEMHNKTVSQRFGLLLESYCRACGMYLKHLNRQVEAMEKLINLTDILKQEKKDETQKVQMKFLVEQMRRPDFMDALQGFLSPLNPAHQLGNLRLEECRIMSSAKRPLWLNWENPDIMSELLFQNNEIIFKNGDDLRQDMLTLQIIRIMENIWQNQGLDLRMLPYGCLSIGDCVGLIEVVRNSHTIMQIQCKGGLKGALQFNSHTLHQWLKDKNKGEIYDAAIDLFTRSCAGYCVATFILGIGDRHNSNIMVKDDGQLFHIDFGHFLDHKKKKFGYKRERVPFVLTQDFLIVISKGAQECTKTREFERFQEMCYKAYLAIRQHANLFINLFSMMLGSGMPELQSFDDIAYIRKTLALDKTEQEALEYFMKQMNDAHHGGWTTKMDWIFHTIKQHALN
Series [7] deals with Phosphatidylinositol 4,5-bisphosphate 3-kinase catalytic subunit gamma isoform (Homo sapiens, UniProt P48736). Briefly: Inhibition of PI3Kgamma (unknown origin).
Sequence of Phosphatidylinositol 4,5-bisphosphate 3-kinase catalytic subunit gamma isoform (P48736 whole entry, canonical isoform): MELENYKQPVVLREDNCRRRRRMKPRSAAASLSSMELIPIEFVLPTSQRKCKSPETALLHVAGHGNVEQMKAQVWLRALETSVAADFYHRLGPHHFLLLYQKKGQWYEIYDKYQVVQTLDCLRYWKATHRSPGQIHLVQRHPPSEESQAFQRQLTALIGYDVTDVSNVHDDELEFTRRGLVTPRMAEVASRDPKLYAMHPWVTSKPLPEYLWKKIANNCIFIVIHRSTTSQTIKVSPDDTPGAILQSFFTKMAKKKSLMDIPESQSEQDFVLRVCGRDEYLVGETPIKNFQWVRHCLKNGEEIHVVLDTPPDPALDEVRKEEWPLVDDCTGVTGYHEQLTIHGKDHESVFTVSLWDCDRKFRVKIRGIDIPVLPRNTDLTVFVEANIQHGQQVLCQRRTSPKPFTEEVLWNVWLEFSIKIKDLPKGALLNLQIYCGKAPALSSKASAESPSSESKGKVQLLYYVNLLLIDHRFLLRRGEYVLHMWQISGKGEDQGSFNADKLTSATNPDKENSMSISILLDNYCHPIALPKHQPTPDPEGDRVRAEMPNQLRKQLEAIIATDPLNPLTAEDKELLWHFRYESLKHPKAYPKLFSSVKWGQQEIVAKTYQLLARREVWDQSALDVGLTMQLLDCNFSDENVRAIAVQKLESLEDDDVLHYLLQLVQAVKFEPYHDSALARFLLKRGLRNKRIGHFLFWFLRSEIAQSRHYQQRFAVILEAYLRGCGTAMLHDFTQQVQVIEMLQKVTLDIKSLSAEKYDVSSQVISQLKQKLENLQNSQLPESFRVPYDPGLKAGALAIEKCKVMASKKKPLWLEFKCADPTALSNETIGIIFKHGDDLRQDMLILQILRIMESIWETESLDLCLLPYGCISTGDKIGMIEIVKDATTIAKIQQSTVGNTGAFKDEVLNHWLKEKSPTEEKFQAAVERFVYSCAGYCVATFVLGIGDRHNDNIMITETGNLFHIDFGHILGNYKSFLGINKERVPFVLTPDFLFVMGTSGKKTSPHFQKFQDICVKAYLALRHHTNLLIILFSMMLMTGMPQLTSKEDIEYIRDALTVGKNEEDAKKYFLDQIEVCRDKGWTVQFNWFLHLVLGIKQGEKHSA
Series [8] is filed under the species Homo sapiens. Nature of the series: Selectivity ratio of IC50 for PI3Kdelta (unknown origin) to IC50 for PI3Kgamma (unknown origin).
The target in series [9] is MAP kinase-interacting serine/threonine-protein kinase 1/2 (Homo sapiens) (UniProt Q9HBH9+Q9BUB5). Nature of the series: Inhibition of MNK in human PBMC assessed as reduction in eIF4E phosphorylation at 200 mg after 24 hrs relative to control.
For series [10], the target named is T2, Tyrosine-protein kinase JAK3 (Homo sapiens, UniProt P52333).
T2 sequence (P52333 whole entry): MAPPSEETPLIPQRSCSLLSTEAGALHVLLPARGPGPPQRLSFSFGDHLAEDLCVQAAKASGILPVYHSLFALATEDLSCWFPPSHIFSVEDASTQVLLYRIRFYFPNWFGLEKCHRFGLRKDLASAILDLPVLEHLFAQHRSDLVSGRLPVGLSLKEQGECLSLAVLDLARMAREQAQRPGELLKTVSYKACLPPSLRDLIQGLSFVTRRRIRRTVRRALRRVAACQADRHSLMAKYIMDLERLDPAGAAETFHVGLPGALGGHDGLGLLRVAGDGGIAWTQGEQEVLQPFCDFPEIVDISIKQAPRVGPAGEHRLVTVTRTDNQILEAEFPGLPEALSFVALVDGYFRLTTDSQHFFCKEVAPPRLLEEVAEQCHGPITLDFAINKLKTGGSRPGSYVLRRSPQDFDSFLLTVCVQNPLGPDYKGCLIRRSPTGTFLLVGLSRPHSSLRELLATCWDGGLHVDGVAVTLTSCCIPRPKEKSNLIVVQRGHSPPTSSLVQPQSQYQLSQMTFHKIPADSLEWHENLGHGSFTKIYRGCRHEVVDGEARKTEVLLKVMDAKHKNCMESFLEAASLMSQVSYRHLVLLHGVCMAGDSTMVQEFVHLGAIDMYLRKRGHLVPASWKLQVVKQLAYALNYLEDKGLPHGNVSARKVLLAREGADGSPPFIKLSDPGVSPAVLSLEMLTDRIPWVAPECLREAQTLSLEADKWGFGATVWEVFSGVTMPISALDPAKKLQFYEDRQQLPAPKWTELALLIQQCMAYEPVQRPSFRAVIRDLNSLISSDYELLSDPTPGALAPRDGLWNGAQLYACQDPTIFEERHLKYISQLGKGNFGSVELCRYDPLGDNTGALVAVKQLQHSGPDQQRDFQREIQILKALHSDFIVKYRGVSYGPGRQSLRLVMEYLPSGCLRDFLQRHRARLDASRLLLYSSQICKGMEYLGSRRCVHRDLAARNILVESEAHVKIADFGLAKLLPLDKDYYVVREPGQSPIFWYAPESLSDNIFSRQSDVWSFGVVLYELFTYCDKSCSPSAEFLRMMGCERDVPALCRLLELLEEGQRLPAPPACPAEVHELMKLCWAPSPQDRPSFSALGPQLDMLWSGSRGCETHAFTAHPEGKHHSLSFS
Nature of the series: Inhibition of JAK3 in human Jurkat cells assessed as reduction in IFN-alpha stimulated JAK3 phosphorylation by […] Western blot analysis. It counts as cell-based. A general note: A western blot detects proteins with antibodies after separation by electrophoresis.

The target in series [11] is Tyrosine-protein kinase JAK1 (Homo sapiens, UniProt P23458). Nature of the series: Inhibition of JAK1 in human Jurkat cells assessed as reduction in IFN-alpha stimulated JAK1 phosphorylation by […] Western blot analysis. It counts as cell-based.
Series [12] concerns the target Non-receptor tyrosine-protein kinase TYK2 (Homo sapiens, UniProt P29597). Briefly: Inhibition of TYK2 in human Jurkat cells assessed as reduction in IFN-alpha stimulated TYK2 phosphorylation by […] Western blot analysis. Format: cell-based.

What is called IC50 is the concentration needed to halve the response being measured. On to `CC[C@@H]1[C@H](F)C(=O)N[C@@H]1COc1cccc2cc(C(N)=O)c(OC)cc12`, for which the IC50 in series [1] stood at 0.2 nM.
A word on the half-life: it is the time needed for the level to fall by half in the phase considered. Consider `N#Cc1ccc(-c2cnc3ccc(-c4ccc(C(=O)N5CCOCC5)cc4)cn23)cc1` [TINODASERTIB], for which the half-life in series [2] is 25 h.
For `Fc1ccc2[nH]ccc2c1-c1nc(N2CCOCC2)c2sc(CN3CCN(CC4CC4)CC3)cc2n1`, the Ratio IC50 in series [3], in [5] and in series [8] was greater than 72 throughout. For the same molecule, the values for the IC50 in series [4], in [6] and in [7] were 1080 nM, 2300 nM and greater than 10000 nM, respectively.
By inhibition is commonly meant the relative decrease from the control value, in per cent. As for `Cc1cc(Nc2cc(N)ncn2)c(=O)n2c1C(=O)NC21CCCCC1.Cl` [TOMIVOSERTIB HYDROCHLORIDE], the inhibition in series [9] was 85%. The same molecule had a half-life in series [2] of 11 h.
In turn, `NC(=O)C[C@H]1CCc2sc3ncnc(O[C@H]4CC[C@H](N5CCOCC5)CC4)c3c21` returned an IC50 in series [1] of 7.5 nM.
Regarding `Cc1csc2nc([C@H](C)Nc3ncnc4[nH]cnc34)c(-c3cccc(F)c3)c(=O)n12` [DEZAPELISIB], the IC50 was determined as 3750 nM in series [4] and 2300 nM in [7].
Turning to `NC(=O)c1nc(-c2c(F)cccc2Cl)oc1Nc1ccc(C(=O)N2CCOCC2)cc1`, the IC50 was determined as 41 nM in series [10], 23 nM in series [11] and 0.6 nM in series [12].
As for `CC(C)Oc1ccc(-c2nn([C@@H](C)c3oc4ccc(F)cc4c(=O)c3-c3cccc(F)c3)c3ncnc(N)c23)cc1F` [UMBRALISIB], the IC50 is greater than 10000 nM in [4], greater than 10000 nM in series [6] and 1400 nM in series [7].
